Kd data for 101 compounds are collected here from PubChem BioAssay AID1648 (Sanford-Burnham Center for Chemical Genomics, 2009).

Active and inactive are the calls of the source. The rule behind the calls is not given here.

For orientation: Kd means the constant that tells how readily two partners part at equilibrium.

Chain of Serine/threonine-protein kinase mTOR (Homo sapiens) (P42345 2015-2114): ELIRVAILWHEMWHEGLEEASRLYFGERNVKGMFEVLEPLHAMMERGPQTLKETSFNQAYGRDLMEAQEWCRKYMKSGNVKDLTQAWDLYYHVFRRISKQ

This test has as its target Serine/threonine-protein kinase mTOR (Homo sapiens) (UniProt P42345). Description: mTOR FRB domain ligand binding – biophysical, NMR (AID 1648). The note with it: NMR binding to FRB domain, chemical shift.
Turning to `O=[n+]1c2c(n([O-])c3ccccc31)CCCC2`, the Kd was > 4 mM (inactive).

For `CC(=O)c1ccc(CC2SC(N)=NC2=O)cc1` (stereo unspecified), the Kd was > 4 mM (inactive).

Turning to `COC(=O)c1oc2ccc(Cl)cc2c1NC(C)=O`, the Kd is > 4 mM (inactive).

As to `CN1CCC(N2CCCC(C(N)=O)C2)CC1` (stereo unspecified), the Kd is > 4 mM (inactive).

In the case of `CC1(O)CC2C=CC1C2` (stereo unspecified), the Kd was > 4 mM (inactive).

Take `COc1cc(C(=O)NCC2CCCO2)cc(OC)c1OC` (stereo unspecified): the Kd was > 4 mM (inactive).

`CC1(C)C(=O)N(O)C(C)(C)C(=O)N1O`: the Kd was > 4 mM (inactive).

On to `Cc1cc(C)nc(/N=C(\N)N2CCc3ccccc32)n1`, for which the Kd is > 4 mM (inactive).

With `O=c1c(O)c(-c2ccccc2)oc2ccc3occc3c12`, the Kd was > 4 mM (inactive).

Consider `CC1(C)C2CC(=O)[C@]3(C)C(CC[C@@]4(C)[C@H](c5ccoc5)OC(=O)[C@H]5O[C@]543)[C@@]2(C)C=C[C@@H]1O` (stereo partly specified), for which the Kd is > 4 mM (inactive).

With `Cc1ccccc1CSc1nncn1N`, the Kd was > 4 mM (inactive).

In the case of `Nc1ncnc(NCCOCCO)c1[N+](=O)[O-]`, the Kd was > 4 mM (inactive).

With `CN1CCC(NC(=O)C2CCCO2)CC1` (stereo unspecified), the Kd is > 4 mM (inactive).

On to `CC(=O)O[C@H]1C[C@@H](OC(C)=O)C(C)(C)C2C[C@@H](OC(C)=O)[C@]3(C)C([C@H](OC(C)=O)C[C@@]4(C)[C@H](c5ccoc5)OC(=O)[C@H]5O[C@]543)[C@]21C` (stereo partly specified), for which the Kd is > 4 mM (inactive).

Turning to `Cn1c(NCc2ccccc2O)nc2ccccc21`, the Kd is > 4 mM (inactive).

`Cc1nnsc1C(=O)Nc1ccc(C(N)=O)cc1`: the Kd was > 4 mM (inactive).

On to `O=C(O)c1ccc(-c2cccs2)s1`, for which the Kd is > 4 mM (inactive).

Consider `CCn1ccc(C(=O)Nc2nccs2)n1`, for which the Kd was > 4 mM (inactive).

As for `CC(=O)c1c(C)nc2ccccc2c1N`, the Kd is > 4 mM (inactive).

As for `Cc1noc(C)c1C(=O)Nc1ccccn1`, the Kd is > 4 mM (inactive).

As for `N#Cc1cc2ccccc2nc1N`, the Kd is > 4 mM (inactive).

Consider `CSc1ccccc1NC(=O)c1ccncc1`, for which the Kd is > 4 mM (inactive).

On to `COC(=O)C(O)[C@@H]1C2(C)C(=O)[C@@H](CC3=C4CC(=O)O[C@@H](c5ccoc5)[C@]4(C)CCC32)[C@H](OC(C)=O)C1(C)C` (stereo partly specified), for which the Kd is > 4 mM (inactive).

On to `CN1C(=O)c2ccc(N3CCCC3)cc2C1=O`, for which the Kd was > 4 mM (inactive).

As for `O=c1oc2ccccc2cc1O`, the Kd is > 4 mM (inactive).

On to `CC(=O)c1ccc2c(c1)OCCO2`, for which the Kd is > 4 mM (inactive).

Consider `C=CCNC(=O)c1ccc(Cl)cc1Cl`, for which the Kd is > 4 mM (inactive).

On to `OCCCc1nc2ccc(C(F)(F)F)cc2[nH]1`, for which the Kd was > 4 mM (inactive).

As for `Nc1nncn1C(=O)c1ccccc1Cl`, the Kd is > 4 mM (inactive).

As to `C=C[C@H]1CN2CC[C@H]1C[C@@H]2[C@H](O)c1ccnc2ccccc12`, the Kd is > 4 mM (inactive).

As for `CS(=O)(=O)c1ccc(N)cc1`, the Kd was > 4 mM (inactive).

Take `O=C(Nn1cnnc1)c1csc2c1CCCC2`: the Kd is > 4 mM (inactive).

As for `COc1ccc2c(c1)c1n[nH]c(=S)nc1n2C`, the Kd was > 4 mM (inactive).

Consider `Cc1cccc(NC(=O)c2ccccc2C(=O)O)c1`, for which the Kd is > 4 mM (inactive).

Take `O=C(Nc1cccc(C(F)(F)F)c1)c1cccnc1`: the Kd was > 4 mM (inactive).

As to `COc1ccc(-c2coc3c(OC)c(OC)cc(O)c3c2=O)cc1`, the Kd was > 4 mM (inactive).

With `Cc1occc1C(=O)NCc1ccccn1`, the Kd is > 4 mM (inactive).

On to `CCOc1cc(C)c(Cl)cc1S(=O)(=O)N(C)C`, for which the Kd is > 4 mM (inactive).

As to `O=c1c(O)c(-c2ccccc2)oc2ccccc12`, the Kd was > 4 mM (inactive).

On to `CC(=O)Nc1ccc(NC(=O)C2CC2)cc1`, for which the Kd is > 4 mM (inactive).

For the compound `Nc1ccc(S(=O)(=O)N2CCOCC2)cc1`, the Kd was > 4 mM (inactive).

Turning to `Cc1cc(C)c(NC(=O)CN2CCC(O)CC2)c(C)c1`, the Kd is > 4 mM (inactive).

Consider `Cc1ccc(C2NS(=O)(=O)N=C2N)cc1` (stereo unspecified), for which the Kd was > 4 mM (inactive).

For the compound `CCCNC(CC(=O)Nc1cccnc1)C(=O)O` (stereo unspecified), the Kd is > 4 mM (inactive).

For the compound `O=C(NCCCSc1ncccn1)Nc1ncccn1`, the Kd was > 4 mM (inactive).

Take `CNC(=O)c1ccccc1-c1ccccc1`: the Kd was > 4 mM (inactive).

Regarding `O=C1c2ccncc2C(=O)N1CO`, the Kd is > 4 mM (inactive).

Take `CNC(=O)c1cc2cccc(OC)c2oc1=O`: the Kd was > 4 mM (inactive).

As to `Nc1cccc(CC(=S)N2CCOCC2)c1`, the Kd was > 4 mM (inactive).

On to `C=CC(=O)N1CC2CC(C1)c1cccc(=O)n1C2` (stereo unspecified), for which the Kd is > 4 mM (inactive).

Consider `Oc1ccc([C@H]2Oc3cc(O)cc(O)c3C[C@H]2O)cc1`, for which the Kd was > 4 mM (inactive).

Take `O=C(c1cc(Cl)cc(Cl)c1)N1CCOCC1`: the Kd was > 4 mM (inactive).

On to `Nc1nnc(COc2cccc(C(F)(F)F)c2)s1`, for which the Kd is > 4 mM (inactive).

Regarding `O=c1ccc2ccccc2o1`, the Kd was > 4 mM (inactive).

As to `O=C(Nc1cccc2cccnc12)c1cccnc1`, the Kd is > 4 mM (inactive).

With `O=C(O)C12CC3CC(CC(O)(C3)C1)C2`, the Kd was > 4 mM (inactive).

As to `O=C(Nc1cccnc1)N1CCOCC1`, the Kd is > 4 mM (inactive).

For the compound `NC12CC3CC(C1)CC(CC(=O)O)(C3)C2`, the Kd was > 4 mM (inactive).

For the compound `COc1ccc(C(N)=O)cc1N`, the Kd is > 4 mM (inactive).

`O=C(NCc1cccnc1)c1ccccn1`: the Kd is > 4 mM (inactive).

As for `Cc1cc(C(=O)NCc2cccnc2)no1`, the Kd is > 4 mM (inactive).

On to `C=C1C(=O)OC2CC1C(OC(C)=O)C/C(C)=C/CC/C(C)=C/CC[C@]2(C)O` (stereo partly specified), for which the Kd is > 4 mM (inactive).

As for `O=C(O)CCc1c[nH]c2ccccc12`, the Kd is > 4 mM (inactive).

Regarding `O=c1[nH]cc(COCc2ccccc2)c(=O)[nH]1`, the Kd was > 4 mM (inactive).

Take `Cn1cc(Cl)c(C(=O)NC2CCCCCC2)n1`: the Kd is > 4 mM (inactive).

As for `Oc1ccc2c(c1)OCC1(O)Cc3cc(O)c(O)cc3C21` (stereo unspecified), the Kd was > 4 mM (inactive).

`O=C1NCCCC1C(=O)N/N=C/c1ccccc1` (stereo unspecified): the Kd is > 4 mM (inactive).

Turning to `COc1ccccc1NC(=O)c1cc[n+]([O-])cc1`, the Kd is > 4 mM (inactive).

Consider `C=Cc1c(C)c2cc3[nH]c(cc4nc(cc5nc(cc1[nH]2)C(C)=C5CCC(=O)O)C(CCC(=O)O)=C4C)c(C)c3C=C`, for which the Kd was > 4 mM (inactive).

`CCOC(=O)c1c(C)nc2ncccn12`: the Kd was > 4 mM (inactive).

As for `Cc1ccccc1N1C(=O)CC(=O)NC1=O`, the Kd was > 4 mM (inactive).

For `O=C1C=C(Nc2ccccc2O)c2ccccc2C1=O`, the Kd was > 4 mM (inactive).

Take `O=c1c[n+]([O-])c2ccccc2n1OCc1ccccn1`: the Kd was > 4 mM (inactive).

For `NC(=O)CNC(=O)c1ccc2ccccc2n1`, the Kd is > 4 mM (inactive).

On to `COC1C(O)C(O[C@H]2CC[C@]3(C=O)C4C(CC[C@]3(O)C2)[C@@]2(O)CC[C@H](C3=CC(=O)OC3)[C@@]2(C)C[C@H]4OC(C)=O)OC(C)C1OC(C)=O` (stereo partly specified), for which the Kd was > 4 mM (inactive).

In the case of `CN(C)C(=O)Nc1ccc(F)cc1F`, the Kd was > 4 mM (inactive).

Take `Cc1ccccc1NC(=O)C1CC(=O)N=C(N)S1` (stereo unspecified): the Kd is > 4 mM (inactive).

As for `Cn1c(=O)c2c(n(C)c1=O)=NC1(CCCCC1)N=2`, the Kd is > 4 mM (inactive).

As to `O=C(Oc1ccc(-c2nnco2)cc1)N1CCCCC1`, the Kd was > 4 mM (inactive).

Consider `COC1(C)CCC2OC2(C)CCC2C1CC2(C)C` (stereo unspecified), for which the Kd was > 4 mM (inactive).

Regarding `Cc1occc1C(=O)Nc1cc(C(C)(C)C)on1`, the Kd is > 4 mM (inactive).

As for `CS(=O)(=O)NN=C1CCCCC1`, the Kd is > 4 mM (inactive).

For `NCC1CN(Cc2ccccc2)CCO1` (stereo unspecified), the Kd is > 4 mM (inactive).

In the case of `CS(=O)(=O)Nc1nnc(Cc2ccccc2)s1`, the Kd is > 4 mM (inactive).

With `CC(=O)NC1=NN(c2ccccc2)C(=O)C1`, the Kd is > 4 mM (inactive).

As to `Cc1cc(CN2C(=O)c3ccccc3C2=O)on1`, the Kd was > 4 mM (inactive).

As to `CC(C)=NNC(=O)C(=O)NC(C)(C)C`, the Kd is > 4 mM (inactive).

For `Cn1cnc2c(=O)[nH]cc([N+](=O)[O-])c21`, the Kd was > 4 mM (inactive).

`CC(=O)n1c(N)nc2ccccc21`: the Kd was > 4 mM (inactive).

As for `Cc1cc(N2CCN(C)CC2)ncn1`, the Kd was > 4 mM (inactive).

In the case of `OC[C@H]1O[C@@H](O[C@H]2[C@H](O)[C@@H](O)[C@@H](O)O[C@@H]2CO)[C@H](O)[C@@H](O)[C@@H]1O`, the Kd is > 4 mM (inactive).

As to `C[C@H](CCC(=O)O)[C@H]1CCC2C3C(CC[C@@]21C)[C@@]1(C)CC[C@@H](O)C[C@H]1C[C@H]3O` (stereo partly specified), the Kd was > 4 mM (inactive).

For the compound `N#C/C(=C\c1ccc[nH]1)S(=O)(=O)c1ccccc1`, the Kd is > 4 mM (inactive).

In the case of `Cc1cccc(-n2c(N)cc(=O)[nH]c2=S)c1`, the Kd is > 4 mM (inactive).

Turning to `O=c1[nH]c(=S)c2c(n1-c1ccccc1)CCC2`, the Kd was > 4 mM (inactive).

As for `O=S(=O)(c1cccc2cccnc12)N1CCOCC1`, the Kd was > 4 mM (inactive).

As to `NCc1ccc(CN2CCOCC2)cc1`, the Kd is > 4 mM (inactive).

Take `COc1ccc(-c2noc(-c3ccco3)n2)cc1OC`: the Kd was > 4 mM (inactive).

Consider `O=C(Nc1ccccc1CO)c1ccccc1F`, for which the Kd is > 4 mM (inactive).

As for `OC1CCCN(Cc2ccccc2)C1` (stereo unspecified), the Kd is > 4 mM (inactive).

Consider `Cn1c(CSc2nc3ccccc3s2)n[nH]c1=S`, for which the Kd was > 4 mM (inactive).
